Assay results as given in patent US7307088B2, “Substituted anthranilic amide derivatives and methods of use” (Amgen Inc., priority 2002, dated 2007).

Test system: VEGF-stimulated HUVEC proliferation (Human Umbilical Vein Endothelial cells)
Assay: HUVEC Proliferation Assay
Type: cell-based
Conditions: 72 h, CyQuant dye, read-out: inhibited VEGF-stimulated HUVEC proliferation at a level (IC50 values determined)
Protocol: Human Umbilical Vein Endothelial cells are purchased from Clonetics, Inc., as cryopreserved cells harvested from a pool of donors. These cells, at passage 1, are thawed and expanded in EBM-2 complete medium, until passage 2 or 3. The cells are trypsinized, washed in DMEM+10% FBS+antibiotics, and spun at 1000 rpm for 10 min. Prior to centrifugation of the cells, a small amount is collected for a cell count. After centrifugation, the medium is discarded, and the cells are resuspended in the appropriate volume of DMEM+10% FBS+antibiotics to achieve a concentration of 3×10^5 cells/mL. Another cell count is performed to confirm the cell concentration. The cells are diluted to 3×10^4 cells/mL in DMEM+10% FBS+antibiotics, and 100 μL of cells are added to a 96-well plate. The cells are incubated at 37° C. for 22 h.
Prior to the completion of the incubation period, compound dilutions are prepared. Five-point, five-fold serial dilutions are prepared in DMSO, at concentrations 400-fold greater than the final concentrations desired. 2.5 μL of each compound dilution are diluted further in a total of 1 mL DMEM+10% FBS+antibiotics (400× dilution). Medium containing 0.25% DMSO is also prepared for the 0 μM compound sample. At the 22 h timepoint, the medium is removed from the cells, and 100 μL of each compound dilution is added. The cells are incubated at 37° C. for 2-3 h.
During the compound pre-incubation period, the growth factors are diluted to the appropriate concentrations. Solutions of DMEM+10% FBS+antibiotics, containing either VEGF or bFGF at the following concentrations: 50, 10, 2, 0.4, 0.08, and 0 ng/mL are prepared. For the compound-treated cells, solutions of VEGF at 550 ng/mL or bFGF at 220 ng/mL for 50 ng/mL or 20 ng/mL final concentrations, respectively, are prepared since 10 μL of each will be added to the cells (110 μL final volume). At the appropriate time after adding the compounds, the growth factors are added. VEGF is added to one set of plates, while bFGF is added to another set of plates. For the growth factor control curves, the media on wells B4-G6 of plates 1 and 2 are replaced with media containing VEGF or bFGF at the varying concentrations (50-0 ng/mL). The cells are incubated at 37° C. for an additional 72 h.
At the completion of the 72 h incubation period, the medium is removed, and the cells are washed twice with PBS. After the second wash with PBS, the plates are tapped gently to remove excess PBS, and the cells are placed at −70° C. for at least 30 min. The cells are thawed and analyzed using the CyQuant fluorescent dye (Molecular Probes C-7026), following the manufacturer's recommendations. The plates are read on a Victor/Wallac 1420 workstation at 485 nm/530 nm (excitation/emission). Raw data are collected and analyzed using a 4-parameter fit equation in XLFit. IC50 values are then determined.

Q: With `CC(=O)N1CC(C)(C)c2ccc(NC(=O)c3ccccc3NCc3ccc(F)cc3)cc21` [Example 3, N-(1-Acetyl-3,3-dimethyl-2,3-dihydro-1H-indol-6-yl)-2-(4-fluoro-benzylamino)-benzamide] as the compound, how does the IC50 read?
A: The IC50 was less than 1000 nM.

Q: With `CN1CCN(C(=O)N2CC(C)(C)c3ccc(NC(=O)c4ccccc4NCc4ccc(F)cc4)cc32)CC1` [Example 8, N-[3,3-Dimethyl-1-(4-methyl-piperazine-1-carbonyl)-2,3-dihydro-1H-indol-6-yl]-2-(4-fluoro-benzylamino)-benzamide] as the compound, how does the IC50 read?
A: Its IC50 is less than 1000 nM.

Q: Which IC50 does the source give for `CC(=O)N1CC(C)(C)c2ccc(NC(=O)c3ccccc3NCc3cc[n+]([O-])cc3)cc21` [Example 10, N-(1-Acetyl-3,3-dimthyl-2,3-dihydro-1H-indol-6-yl)-2-[(1-oxy-pyridin-4-ylmethyl)-amino]-benzamide] here?
A: Its IC50 is less than 1000 nM.

Q: `CC(=O)N1Cc2cc(NC(=O)c3ccccc3NCc3ccnc4ccccc34)ccc2C(C)(C)C1` [Example 13, N-(2-Acetyl-4,4-dimthyl-1,2,3,4-tetrahydro-isoquinolin-7-yl)-2-[(quinolin-4-ylmethyl)-amino]-benzamide] was tested. Which IC50 did it give?
A: The IC50 was less than 1000 nM.

Q: Which IC50 does the source give for `CC1(C)CNCc2cc(NC(=O)c3ccc(F)cc3NCc3ccc(F)cc3)ccc21` [Example 107, N-(4,4-Dimethyl-1,2,3,4-tetrahydro-isoquinolin-7-yl)-4-fluoro-6-(4-fluoro-benzylamino)-benzamide] here?
A: The IC50 was less than 1000 nM.

Q: Which IC50 does the source give for `CC1(C)CNCc2cc(NC(=O)c3cc(F)c(F)cc3NCc3ccc(F)cc3)ccc21` [Example 108, N-(4,4-Dimethyl-1,2,3,4-tetrahydro-isoquinolin-7-yl)-3,4-difluoro-6-(4-fluoro-benzylamino)-benzamide] here?
A: Its IC50 is less than 1000 nM.

Q: How did the IC50 turn out when `CC1(C)CNCc2cc(NC(=O)c3ccccc3NCc3c[nH]c4ncccc34)ccc21` [Example 113, N-(4,4-Dimethyl-1,2,3,4-tetrahydro-isoquinolin-7-yl)-2-[(1H-pyrrolo [2,3-b]pyridin-3-ylmethyl)-amino]-benzamide] was run?
A: The IC50 was less than 1000 nM.

Q: `CC1(C)CNCc2cc(NC(=O)c3ccccc3NCc3cccc4nccnc34)ccc21` [Example 124, N-(4,4-Dimethyl-1,2,3,4-tetrahydro-isoquinolin-7-yl)-2-[(quinoxalin-5-ylmethyl)-amino]-benzamide] was tested. Which IC50 did it give?
A: Its IC50 is less than 1000 nM.

Q: Which IC50 does the source give for `CC(Nc1ccccc1C(=O)Nc1ccc2c(c1)CN(C(=O)OC(C)(C)C)CC2(C)C)c1ccnc(N)n1` (stereo not drawn) [Example 126, tert-Butyl 7-{2-[1-(2-amino-pyrimidin-4-yl)-ethylamino]-benzoylamino}-4,4-dimethyl-3,4-dihydro-1H-isoquinoline-2-carboxylate] here?
A: Its IC50 is less than 1000 nM.

Q: Which IC50 does the source give for `CC(Nc1ccccc1C(=O)Nc1ccc2c(c1)CNCC2(C)C)c1ccnc(N)n1` (stereo not drawn) [Example 127, 2-[1-(2-Amino-pyrimidin-4-yl)-ethylamino]-N-(4,4-dimethyl-1,2,3,4-tetrahydro-isoquinolin-7-yl)-benzamide] here?
A: Its IC50 is less than 100 nM.

Q: For `CNc1nccc([C@H](C)Nc2ccccc2C(=O)Nc2ccc3c(c2)CNCC3(C)C)n1` [Example 130, (S)—N-(4,4-Dimethyl-1,2,3,4-tetrahydro-isoquinolin-7-yl)-2-[1-(2-methylamino-pyrimidin-4-yl)-ethylamino]-benzamide], which IC50 is on record?
A: The IC50 was less than 1000 nM.

Q: `CNc1nccc([C@@H](C)Nc2ccccc2C(=O)Nc2ccc3c(c2)N(C(C)=O)CC32CC2)n1` [Example 132, N-(1-Acetyl-1′,2′-dihydrospiro[cyclopropane-1,3′-[3H]indol]-6′-yl)-2-[[(1R)-1-[2-(methylamino)-4-pyrimidinyl]ethyl]amino]-benzamide] was tested. Which IC50 did it give?
A: Its IC50 is less than 1000 nM.
